Assay results taken from the NIST ThermoML archive (doi:10.1021/je0301794).
± gives the expanded uncertainty stated by the source.

Experiments:
[1] = xn = mol fraction of the nth substance listed; settings: 101.3 kPa, Liquid
[2] = excess molar enthalpy (molar enthalpy of mixing); xn = mol fraction of the nth substance listed; settings: 318.15 K, 101.3 kPa, Liquid

CCCCCCCCCC [decane] + COC(=O)OC
[1]
Settings | mass density [kg/m3]
298.15 K, x2 = 0 | 726.2 ± 0.5
298.15 K, x2 = 0.0043 | 726.8 ± 0.5
298.15 K, x2 = 0.0235 | 729.1 ± 0.5
298.15 K, x2 = 0.0888 | 737.6 ± 0.5
298.15 K, x2 = 0.1363 | 744.6 ± 0.5
298.15 K, x2 = 0.1922 | 753.4 ± 0.5
298.15 K, x2 = 0.2402 | 761.6 ± 0.5
298.15 K, x2 = 0.3348 | 779.8 ± 0.5
298.15 K, x2 = 0.4201 | 798.8 ± 0.5
298.15 K, x2 = 0.4876 | 816 ± 0.5
298.15 K, x2 = 0.5607 | 837.1 ± 0.5
298.15 K, x2 = 0.6214 | 856.8 ± 0.5
298.15 K, x2 = 0.6754 | 876.5 ± 0.5
298.15 K, x2 = 0.7219 | 895.2 ± 0.5
298.15 K, x2 = 0.7702 | 916.6 ± 0.5
298.15 K, x2 = 0.8104 | 936.3 ± 0.5
298.15 K, x2 = 0.8421 | 953.4 ± 0.5
298.15 K, x2 = 0.8849 | 978.5 ± 0.5
298.15 K, x2 = 0.9135 | 997 ± 0.5
298.15 K, x2 = 0.9424 | 1017.3 ± 0.5
298.15 K, x2 = 0.9709 | 1039 ± 0.5
303.15 K, x2 = 0 | 722.3 ± 0.5
303.15 K, x2 = 0.0489 | 728.4 ± 0.5
303.15 K, x2 = 0.0996 | 735.2 ± 0.5
303.15 K, x2 = 0.1998 | 750.3 ± 0.5
303.15 K, x2 = 0.299 | 768.1 ± 0.5
303.15 K, x2 = 0.3991 | 789.2 ± 0.5
303.15 K, x2 = 0.4992 | 814.3 ± 0.5
303.15 K, x2 = 0.6023 | 845.3 ± 0.5
303.15 K, x2 = 0.7013 | 881.5 ± 0.5
303.15 K, x2 = 0.8008 | 925.9 ± 0.5
303.15 K, x2 = 0.9012 | 982.6 ± 0.5
303.15 K, x2 = 0.9505 | 1016.6 ± 0.5
313.15 K, x2 = 0 | 714.7 ± 0.5
313.15 K, x2 = 0.0489 | 720.6 ± 0.5
313.15 K, x2 = 0.0996 | 727.2 ± 0.5
313.15 K, x2 = 0.1998 | 742 ± 0.5
313.15 K, x2 = 0.299 | 759.4 ± 0.5
313.15 K, x2 = 0.3991 | 780.1 ± 0.5
313.15 K, x2 = 0.4992 | 804.7 ± 0.5
313.15 K, x2 = 0.6023 | 835.2 ± 0.5
313.15 K, x2 = 0.7013 | 870.6 ± 0.5
313.15 K, x2 = 0.8008 | 914.4 ± 0.5
313.15 K, x2 = 0.9012 | 970.3 ± 0.5
313.15 K, x2 = 0.9505 | 1003.6 ± 0.5
318.15 K, x2 = 0 | 710.9 ± 0.5
318.15 K, x2 = 0.0902 | 722.1 ± 0.5
318.15 K, x2 = 0.1142 | 725.4 ± 0.5
318.15 K, x2 = 0.1922 | 736.9 ± 0.5
318.15 K, x2 = 0.3283 | 760.8 ± 0.5
318.15 K, x2 = 0.4184 | 780 ± 0.5
318.15 K, x2 = 0.4855 | 796.3 ± 0.5
318.15 K, x2 = 0.4962 | 799.1 ± 0.5
318.15 K, x2 = 0.5666 | 818.8 ± 0.5
318.15 K, x2 = 0.6142 | 833.9 ± 0.5
318.15 K, x2 = 0.6732 | 854.3 ± 0.5
318.15 K, x2 = 0.728 | 875.8 ± 0.5
318.15 K, x2 = 0.7735 | 895.6 ± 0.5
318.15 K, x2 = 0.8087 | 912.6 ± 0.5
318.15 K, x2 = 0.8503 | 934.4 ± 0.5
318.15 K, x2 = 0.8944 | 960.1 ± 0.5
318.15 K, x2 = 0.9252 | 980 ± 0.5
318.15 K, x2 = 0.9473 | 995.6 ± 0.5
318.15 K, x2 = 0.9768 | 1017.9 ± 0.5

[2]
Settings | excess molar enthalpy [kcal/mol]
x2 = 0 | 0 ± 0.000478
x2 = 0.0948 | 0.19 ± 0.0043
x2 = 0.1964 | 0.341 ± 0.00741
x2 = 0.29 | 0.453 ± 0.00956
x2 = 0.3757 | 0.524 ± 0.011
x2 = 0.4516 | 0.561 ± 0.0117
x2 = 0.5089 | 0.572 ± 0.012
x2 = 0.5556 | 0.573 ± 0.012
x2 = 0.5944 | 0.568 ± 0.012
x2 = 0.6291 | 0.56 ± 0.0117
x2 = 0.6358 | 0.556 ± 0.0117
x2 = 0.6748 | 0.539 ± 0.0112
x2 = 0.7141 | 0.518 ± 0.0108
x2 = 0.7558 | 0.484 ± 0.0103
x2 = 0.7914 | 0.445 ± 0.00932
x2 = 0.8294 | 0.393 ± 0.00837
x2 = 0.8725 | 0.33 ± 0.00717
x2 = 0.9085 | 0.255 ± 0.0055
x2 = 0.9429 | 0.174 ± 0.00406
x2 = 0.9788 | 0.0741 ± 0.00191

COC(=O)OC [dimethyl carbonate] + CCCCCC
[1]
Settings | mass density [kg/m3]
293.15 K, x1 = 0.0722 | 677.3 ± 0.5
293.15 K, x1 = 0.1448 | 696.6 ± 0.5
293.15 K, x1 = 0.2286 | 720.8 ± 0.5
293.15 K, x1 = 0.3026 | 744 ± 0.5
293.15 K, x1 = 0.4102 | 780.8 ± 0.5
293.15 K, x1 = 0.5062 | 817 ± 0.5
293.15 K, x1 = 0.6026 | 857.1 ± 0.5
293.15 K, x1 = 0.7052 | 904 ± 0.5
293.15 K, x1 = 0.7974 | 950.5 ± 0.5
293.15 K, x1 = 0.901 | 1008.3 ± 0.5
293.15 K, x1 = 0.9506 | 1038.5 ± 0.6
293.15 K, x1 = 1 | 1070 ± 0.6
298.15 K, x1 = 0.082 | 674.9 ± 0.5
298.15 K, x1 = 0.1269 | 686.7 ± 0.5
298.15 K, x1 = 0.2131 | 710.9 ± 0.5
298.15 K, x1 = 0.3197 | 744.1 ± 0.5
298.15 K, x1 = 0.3787 | 764 ± 0.5
298.15 K, x1 = 0.4712 | 797.6 ± 0.5
298.15 K, x1 = 0.5121 | 813.4 ± 0.5
298.15 K, x1 = 0.6067 | 852.6 ± 0.5
298.15 K, x1 = 0.6987 | 894.5 ± 0.5
298.15 K, x1 = 0.842 | 967.9 ± 0.5
298.15 K, x1 = 0.9248 | 1015.9 ± 0.5
298.15 K, x1 = 0.9615 | 1038.7 ± 0.6
298.15 K, x1 = 1 | 1063.5 ± 0.6
303.15 K, x1 = 0.0468 | 661.4 ± 0.5
303.15 K, x1 = 0.0991 | 674.5 ± 0.5
303.15 K, x1 = 0.1951 | 700.4 ± 0.5
303.15 K, x1 = 0.295 | 730.4 ± 0.5
303.15 K, x1 = 0.3832 | 759.5 ± 0.5
303.15 K, x1 = 0.4865 | 797.1 ± 0.5
303.15 K, x1 = 0.5899 | 838.7 ± 0.5
303.15 K, x1 = 0.696 | 886.3 ± 0.5
303.15 K, x1 = 0.7947 | 935.5 ± 0.5
303.15 K, x1 = 0.8939 | 990.5 ± 0.5
303.15 K, x1 = 0.9436 | 1020.3 ± 0.5
303.15 K, x1 = 1 | 1056.5 ± 0.6
313.15 K, x1 = 0.0495 | 652.7 ± 0.5
313.15 K, x1 = 0.1 | 665.2 ± 0.5
313.15 K, x1 = 0.2092 | 694.5 ± 0.5
313.15 K, x1 = 0.3093 | 724.6 ± 0.5
313.15 K, x1 = 0.4043 | 756.1 ± 0.5
313.15 K, x1 = 0.4941 | 788.8 ± 0.5
313.15 K, x1 = 0.6052 | 833.6 ± 0.5
313.15 K, x1 = 0.7063 | 879.2 ± 0.5
313.15 K, x1 = 0.8046 | 928.6 ± 0.5
313.15 K, x1 = 0.9014 | 982.5 ± 0.5
313.15 K, x1 = 0.9497 | 1011.6 ± 0.5
313.15 K, x1 = 1 | 1043.4 ± 0.5
318.15 K, x1 = 0.0773 | 654.9 ± 0.5
318.15 K, x1 = 0.1163 | 664.6 ± 0.5
318.15 K, x1 = 0.1621 | 676.6 ± 0.5
318.15 K, x1 = 0.2689 | 706.8 ± 0.5
318.15 K, x1 = 0.3288 | 725.3 ± 0.5
318.15 K, x1 = 0.4097 | 752.4 ± 0.5
318.15 K, x1 = 0.4753 | 776 ± 0.5
318.15 K, x1 = 0.5256 | 795.2 ± 0.5
318.15 K, x1 = 0.5452 | 803.1 ± 0.5
318.15 K, x1 = 0.5879 | 820.6 ± 0.5
318.15 K, x1 = 0.6449 | 845.2 ± 0.5
318.15 K, x1 = 0.6976 | 869.3 ± 0.5
318.15 K, x1 = 0.7615 | 900.4 ± 0.5
318.15 K, x1 = 0.8039 | 922.2 ± 0.5
318.15 K, x1 = 0.8422 | 942.9 ± 0.5
318.15 K, x1 = 0.8808 | 964.3 ± 0.5
318.15 K, x1 = 0.9311 | 993.8 ± 0.5
318.15 K, x1 = 0.9657 | 1015.1 ± 0.5
318.15 K, x1 = 1 | 1036.9 ± 0.5

[2]
Settings | excess molar enthalpy [kcal/mol]
x1 = 0.088 | 0.171 ± 0.00382
x1 = 0.1762 | 0.292 ± 0.00621
x1 = 0.2418 | 0.369 ± 0.00789
x1 = 0.3259 | 0.432 ± 0.00908
x1 = 0.4027 | 0.472 ± 0.0098
x1 = 0.4703 | 0.49 ± 0.0103
x1 = 0.5162 | 0.495 ± 0.0103
x1 = 0.5554 | 0.492 ± 0.0103
x1 = 0.6261 | 0.477 ± 0.01
x1 = 0.6776 | 0.455 ± 0.00956
x1 = 0.7263 | 0.421 ± 0.00884
x1 = 0.7728 | 0.381 ± 0.00813
x1 = 0.8189 | 0.323 ± 0.00693
x1 = 0.866 | 0.262 ± 0.00574
x1 = 0.9005 | 0.204 ± 0.00454
x1 = 0.9393 | 0.13 ± 0.00311
x1 = 0.9822 | 0.0471 ± 0.00143
x1 = 1 | 0 ± 0.000478
